# Measurements from US12269012B2, “Columns and methods of use for analytical standards and compounds” (priority 2018, dated 2025).
# Where two headings read alike, the source gives them in different places.
# Tests used:
# [1] = type: physicochemical
# Experimental: All three solutions were combined to a final volume of 10.0 mL using pure methanol. From this stock solution, working standards at net final concentration of 10-30 ppm (each) were prepared by appropriate dilution of the stock solution into 1:1 methanol/water, v/v. All working solutions were stored at −20° C. as well as stored at room temperature (stability was monitored after 4 hours, 1 day, 3 days, 7 days, 10 days and 28 days' storage at room temperature) to monitor the extent of degradation.
# Degradation Kinetics (0-28 Days) for wet storage at room temperature.
# The stability of flavonoids was compared at wet storage (solution form at room temperature and at −20° C.) and dry storage (room temperature bound to sorbent and dry form in an open Eppendorf vial).
# [2] = SPE binding and recovery of flavonoid standards from freshly prepared Oasis HLB cartridges; type: physicochemical; conditions: 10, 15, and 20 ppm standard solutions
# Experimental: In addition, on-column standards were prepared from the fresh standards. Unidirectional flow Oasis® HLB, 30 mg sorbent 1 mL cartridges were used as the solid phase extraction column. The appropriate amounts of standard compounds corresponding to 10-30 ppm were adsorbed to SPE sorbent Oasis® HLB cartridges.
# The SPE columns were activated with 1 mL methanol and equilibrated with 1 mL water. The cartridges loaded with standard compound solutions dried and were stored in vacuum sealed packing.
# The columns were stored for several days. The columns were washed with 1:1 methanol/water. Elution was performed twice with 500 μL 10% formic acid in methanol. HPLC-UV and ESI-MS were used to quantify the target compounds.
# [3] = Bound and recovery of PAH standards on PS-DVB on-column standards after 15 days of storage; type: physicochemical; conditions: standards 0.1-9 ppm; for Average % Bound: PS-DVB pipette tip columns; for Average % Recovered: after 15 days of storage of on-column standards
# Experimental: Primary stock solutions of PAHs, namely B(a)A, Ch, B(b)F and B(a)P, were prepared by dissolving 1-2 mg of each compound in 10.0 mL methanol separately. From these stock solutions, secondary working standard stock solutions were mixed together to constitute the working standards containing all the standards mixed together. The secondary standard mixtures were prepared to have final concentrations of 0.1-10 ppm. All primary and secondary working solutions were stored at −20° C.
# PS-DVB 160 μL resin bed volume pipette tip columns (50 mg resin, particle size 70-100 μm particle size, 950 m^2/g surface area) from PhyNexus® (San Jose, CA) were activated with 500 μL of 1:1 methanol/water through five times recycling of the activation solution. The loading was achieved through ten times recycling of the 500 μL sample. Washing was carried out once, with 1:1 methanol/water (ten times recycling of 500 μL wash solution). After washing, the sorbent was dried for 1 minute through flushing ambient air in and out of the tip and then air dried and stored for 15 days.
# PS-DVB sorbent retains PAHs due to strong π-π interactions between sorbent and PAHs. The PS/DVB on-column standards were prepared by loading 0.1, 0.3, 0.5, 0.7, 0.9, 1, 3, 5, 7, and 9 ppm standard mixtures. These corresponded to 50, 150, 250, 350, 450, 500, 1500, 2500, 3500, and 4500 ng by weight of each of the four PAH standards contained in the secondary standard mixture.
smiles,measurement,setting,value
"O=c1c(O)c(-c2ccc(O)c(O)c2)oc2cc(O)cc(O)c12 [Quercetin, quercetin]",percent degradation,"[1]; 0 h, 10 ppm",0%
same,percent degradation,"[1]; 0 h, 15 ppm",0%
same,percent degradation,"[1]; 0 h, 20 ppm",0%
same,percent degradation,"[1]; 0 h, 25 ppm",0%
same,percent degradation,"[1]; 0 h, 30 ppm",0%
same,percent degradation,"[1]; 4 h, 10 ppm",−0.4024%
same,percent degradation,"[1]; 4 h, 15 ppm",0.1356%
same,percent degradation,"[1]; 4 h, 20 ppm",−0.4094%
same,percent degradation,"[1]; 4 h, 25 ppm",0.4552%
same,percent degradation,"[1]; 4 h, 30 ppm",−0.3121%
same,percent degradation,"[1]; 1 day, 10 ppm",0.4024%
same,percent degradation,"[1]; 1 day, 15 ppm",−0.4070%
same,percent degradation,"[1]; 1 day, 20 ppm",0.1023%
same,percent degradation,"[1]; 1 day, 25 ppm",1.442%
same,percent degradation,"[1]; 1 day, 30 ppm",−0.2496%
same,percent degradation,"[1]; 3 days, 10 ppm",3.822%
same,percent degradation,"[1]; 3 days, 15 ppm",2.442%
same,percent degradation,"[1]; 3 days, 20 ppm",1.842%
same,percent degradation,"[1]; 3 days, 25 ppm",2.656%
same,percent degradation,"[1]; 3 days, 30 ppm",0.9363%
same,percent degradation,"[1]; 7 days, 10 ppm",6.237%
same,percent degradation,"[1]; 7 days, 15 ppm",3.799%
same,percent degradation,"[1]; 7 days, 20 ppm",4.811%
same,percent degradation,"[1]; 7 days, 25 ppm",4.780%
same,percent degradation,"[1]; 7 days, 30 ppm",3.246%
same,percent degradation,"[1]; 10 days, 10 ppm",5.432%
same,percent degradation,"[1]; 10 days, 15 ppm",3.664%
same,percent degradation,"[1]; 10 days, 20 ppm",3.480%
same,percent degradation,"[1]; 10 days, 25 ppm",3.414%
same,percent degradation,"[1]; 10 days, 30 ppm",2.871%
same,percent degradation,"[1]; 28 days, 10 ppm",12.47%
same,percent degradation,"[1]; 28 days, 15 ppm",9.633%
same,percent degradation,"[1]; 28 days, 20 ppm",7.881%
same,percent degradation,"[1]; 28 days, 25 ppm",6.525%
same,percent degradation,"[1]; 28 days, 30 ppm",5.056%
same,"Bound % (Oasis ® HLB, 30 mg, 1 ml sorbent)",[2],100%
"c1ccc2c(c1)-c1cccc3c1c-2cc1ccccc13 [Benzo(b)fluoranthene (B(b)F), Benzo(b)fluoranthene]",Average % Bound,[3],95-99%
same,Average % Recovered,[3],90-97%
"O=c1c(O)c(-c2ccc(O)cc2)oc2cc(O)cc(O)c12 [Kaempferol, kaempferol]","Bound % (Oasis ® HLB, 30 mg, 1 ml sorbent)",[2],100%
"c1ccc2cc3c(ccc4ccccc43)cc2c1 [Benz(a)anthracene (B(a)A), Benz(a)anthracene]",Average % Bound,[3],95-99%
same,Average % Recovered,[3],100-102%
"c1ccc2c(c1)cc1ccc3cccc4ccc2c1c34 [Benzo(a)pyrene (B(a)P), Benzo(a)pyrene]",Average % Bound,[3],95-99%
same,Average % Recovered,[3],96-100%
"O=c1c(O)c(-c2cc(O)c(O)c(O)c2)oc2cc(O)cc(O)c12 [Myricetin, myricetin]",percent degradation,"[1]; 0 h, 10 ppm",0%
same,percent degradation,"[1]; 0 h, 15 ppm",0%
same,percent degradation,"[1]; 0 h, 20 ppm",0%
same,percent degradation,"[1]; 0 h, 25 ppm",0%
same,percent degradation,"[1]; 0 h, 30 ppm",0%
same,percent degradation,"[1]; 4 h, 10 ppm",−0.4796%
same,percent degradation,"[1]; 4 h, 15 ppm",−0.6270%
same,percent degradation,"[1]; 4 h, 20 ppm",1.520%
same,percent degradation,"[1]; 4 h, 25 ppm",0.1736%
same,percent degradation,"[1]; 4 h, 30 ppm",0.4265%
same,percent degradation,"[1]; 1 day, 10 ppm",−0.9592%
same,percent degradation,"[1]; 1 day, 15 ppm",0.3134%
same,percent degradation,"[1]; 1 day, 20 ppm",2.690%
same,percent degradation,"[1]; 1 day, 25 ppm",3.211%
same,percent degradation,"[1]; 1 day, 30 ppm",0.9239%
same,percent degradation,"[1]; 3 days, 10 ppm",4.556%
same,percent degradation,"[1]; 3 days, 15 ppm",5.015%
same,percent degradation,"[1]; 3 days, 20 ppm",6.901%
same,percent degradation,"[1]; 3 days, 25 ppm",5.990%
same,percent degradation,"[1]; 3 days, 30 ppm",3.767%
same,percent degradation,"[1]; 7 days, 10 ppm",11.27%
same,percent degradation,"[1]; 7 days, 15 ppm",9.404%
same,percent degradation,"[1]; 7 days, 20 ppm",12.74%
same,percent degradation,"[1]; 7 days, 25 ppm",10.67%
same,percent degradation,"[1]; 7 days, 30 ppm",8.319%
same,percent degradation,"[1]; 10 days, 10 ppm",12.47%
same,percent degradation,"[1]; 10 days, 15 ppm",10.66%
same,percent degradation,"[1]; 10 days, 20 ppm",12.63%
same,percent degradation,"[1]; 10 days, 25 ppm",9.982%
same,percent degradation,"[1]; 10 days, 30 ppm",7.747%
same,percent degradation,"[1]; 28 days, 10 ppm",30.46%
same,percent degradation,"[1]; 28 days, 15 ppm",31.97%
same,percent degradation,"[1]; 28 days, 20 ppm",22.92%
same,percent degradation,"[1]; 28 days, 25 ppm",19.36%
same,percent degradation,"[1]; 28 days, 30 ppm",17.13%
same,"Bound % (Oasis ® HLB, 30 mg, 1 ml sorbent)",[2],100%
"c1ccc2c(c1)ccc1c3ccccc3ccc21 [Chrysene (Ch), Chrysene]",Average % Bound,[3],95-99%
same,Average % Recovered,[3],100-102%
